{"source": "patent US20240024274A1", "about": "“O-ACETYLSERINE FOR THE USE THEREOF IN THE PREVENTION AND TREATMENT OF GLUCOSE INTOLERANCE AND THE ASSOCIATED DISEASES” (INSTITUT NATIONAL DE RECHERCHE POUR L'AGRICULTURE, …, priority 2020, published 2024)", "format_in_all_cases": "in vivo", "key": {"[1]": {"tested_on": "C57BL/6JRj mice fed a high fat diet", "experiment": "Oral glucose tolerance test (OGTT) in mice on high fat diet (HFD) treated with OAS", "protocol": "Male C57BL/6JRj mice aged 7 weeks from Janvier Labs were fed a high fat diet (HFD, 45% fat and 20% sucrose) for 12 weeks. […] A first group of 10 mice fed this diet was treated with a daily dose of OAS of 200 mg/kg/d, at a frequency of 5 days per week during the 12 weeks of diet. The OAS used was the product sold as A6262_SIGMA by Sigma-Aldrich (CAS No. 66638-22-0). This group is the HFD+OAS group. […] This is the HFD group. […] An oral glucose tolerance test (OGTT) was performed on each of the three groups of mice. This test consists of monitoring the plasma glucose concentrations for 120 min, after the mice have received an oral glucose load. Thus, at T0 (fasting blood glucose), glucose (2 g/kg) is given orally to the animal. A drop of blood is taken from the tail every 30 minutes for 120 minutes so as to measure the blood glucose level with a strip glucose meter (Accu-Check Perfoma, available in pharmacies). Glucose tolerance is a reflection of the body's ability to regulate the return to a normal blood glucose level after a glucose load. The OGTT was performed at 5 weeks and 9 weeks after the start of the obesogenic diet. The results of this test show the installation of glucose intolerance as early as 5 weeks in the groups of mice on the HFD diet."}, "[2]": {"experiment": "Epididymal adipose tissue weight of HFD mice after 12 weeks of diet and treatment", "settings": "after 12 weeks of HFD and OAS 200 mg/kg/d, ****p<0.0001", "protocol": "Male C57BL/6JRj mice aged 7 weeks from Janvier Labs were fed a high fat diet (HFD, 45% fat and 20% sucrose) for 12 weeks. […] A first group of 10 mice fed this diet was treated with a daily dose of OAS of 200 mg/kg/d, at a frequency of 5 days per week during the 12 weeks of diet. The OAS used was the product sold as A6262_SIGMA by Sigma-Aldrich (CAS No. 66638-22-0). This group is the HFD+OAS group. […] This is the HFD group. […] These features are indicative of an establishment of obesity in the mice (FIG. 1)."}, "C57BL/6JRj mice [3]": {"tested_on": "C57BL/6JRj mice", "experiment": "Oral glucose tolerance test (OGTT) in healthy mice, single dose of OAS with the glucose load", "settings": "single dose OAS 1000 mg/kg along with glucose 2.5 g/kg oral; vs control group", "protocol": "Male C57BL/6JRj mice aged 7 weeks from Janvier Labs were fed with a conventional diet used in pet shops. A first group of 5 mice, not treated with OAS, served as a control group. A second group of 5 mice was treated with a single dose of OAS at 1000 mg/kg. The OAS used was the product sold under the name A6262 SIGMA by the company Sigma-Aldrich (CAS No. 66638-22-0). This group is the OAS treatment group. An oral glucose tolerance test (OGTT) was performed on each of the two groups of mice. This test consists of monitoring the plasma glucose concentrations for 120 min, after the mice have received an oral glucose load. Thus, at T0 (fasting blood glucose level), glucose (2.5 g/kg) is given orally to the animal. […] In the OGTT test, the OAS treatment group received a dose of 1000 mg/kg of OAS along with the oral glucose load. The control group received only the oral glucose load."}, "C57BL/6JRj mice [4]": {"tested_on": "C57BL/6JRj mice", "experiment": "Oral glucose tolerance test (OGTT) in healthy mice after 5-day OAS treatment", "settings": "OAS 1000 mg/kg daily for 5 days, vs control group; for area under the curve of the OGTT: glucose 2.5 g/kg oral", "protocol": "Male C57BL/6JRj mice aged 7 weeks from Janvier Labs were fed with a conventional diet used in pet shops. A first group of 10 mice, not treated with OAS, served as a control group. A second group of 10 mice was treated with a daily dose of OAS at 1000 mg/kg for 5 days. The OAS used was the product sold under the name A6262_SIGMA by the company Sigma-Aldrich (CAS No. 66638-22-0). This group is the OAS treatment group. An oral glucose tolerance test (OGTT) was performed on each of the two groups of mice. This test consists of monitoring the plasma glucose concentrations for 120 min, after the mice have received an oral glucose load. Thus, at T0 (fasting blood glucose level), glucose (2.5 g/kg) is given orally to the animal. A drop of blood is taken from the tail every 15 to 30 minutes for 90 minutes to measure the blood glucose level with a strip glucose meter (Accu-Check Perfoma, available in pharmacies). The OGTT was performed on the fifth day of treatment 2 h after the OAS treatment group received a dose of 500 mg/kg. At the time of the OGTT, the mice of the treatment group also received 500 mg/kg of OAS along with the oral glucose load. The control group received only the oral glucose load."}}, "note": "“Also recorded” adds a separate entry of the source.", "data": [{"compound": "CC(=O)OC[C@H](N)C(=O)O", "note": "[OAS, O-acetylserine]", "values": [{"measurement": "effect on glucose intolerance (OGTT)", "setting": "[1]; HFD mice, OAS 200 mg/kg/d 5 days per week, after 5 weeks", "value": "no visible effect"}, {"measurement": "glucose intolerance (OGTT)", "setting": "[1]; HFD mice, OAS 200 mg/kg/d 5 days per week, after 9 weeks", "value": "significantly decreases"}, {"measurement": "difference in area under the curve of the OGTT between control group and HFD+OAS group", "setting": "[1]; after 5 weeks, ****p<0.0001", "value": "significant"}, {"measurement": "difference in area under the curve of the OGTT between HFD group and HFD+OAS group", "setting": "[1]; after 9 weeks, *p<0.05", "value": "significant"}, {"measurement": "difference in plasma glucose concentration between control group and HFD+OAS group", "setting": "[1]; after 9 weeks, from t=60 min after oral glucose load", "value": "no longer significant"}, {"measurement": "difference in plasma glucose concentration between HFD group and HFD+OAS group", "setting": "[1]; after 9 weeks, t=30 min after oral glucose load, p<0.0001", "value": "significant"}, {"measurement": "difference in epididymal adipose tissue weight between control group and HFD+OAS group", "setting": "[2]", "value": "statistically significant"}, {"measurement": "area under the curve of the OGTT", "setting": "C57BL/6JRj mice [3]", "value": "lower area under the curve than the control group; also recorded: significant"}, {"measurement": "blood glucose levels at 15 min after the oral glucose load", "setting": "C57BL/6JRj mice [3]", "value": "significantly lower; also recorded: significantly decreases"}, {"measurement": "fasting blood glucose level", "setting": "C57BL/6JRj mice [4]; conventional diet", "value": "tended to be lower; also recorded: decreases"}, {"measurement": "blood glucose levels after the oral glucose load (hyperglycemia induced by an oral glucose load)", "setting": "C57BL/6JRj mice [4]; 15 min, 30 min and 60 min after glucose 2.5 g/kg oral", "value": "significantly lower; also recorded: significantly decreases; also recorded: significant"}, {"measurement": "area under the curve of the OGTT", "setting": "C57BL/6JRj mice [4]", "value": "significant"}, {"measurement": "area under the curve of the OGTT", "setting": "C57BL/6JRj mice [4]; listed as O-acetylserine", "value": "lower than that of the control group"}]}]}
